Data as given in patent publication US6068987A, “Histone deacetylase as target for antiprotozoal agents” (Merck & Co., Inc., priority 1999, dated 2000).

Legend:
[1] = system: histone deacetylase (E. tenella oocyst S100 lysate); test: Competitive binding assay with 3H-N-desmethoxyapicidin, E. tenella S100 lysate; settings: for selectivity for E. tenella over chicken liver lysate in binding assay: E. tenella versus host (chicken liver) lysate
Protocol: E. tenella oocysts. Approximately 2×10^9 E. Tenella oocysts are suspended in 5 ml of PBS/0.1 mM PMSF, 4 mls of an equal mixture (vol/vol) of 4.0 and 1.0 mm glass beads is added. The glass bead-oocyst mixture is then shaken for 20 minutes to cause disruption of the oocysts. The efficiency of breakage is checked microscopically. The resulting homogenate is separated from the glass beads and centrifuged at 3000×g for 10 min. The supernatant is then subjected to an additional centrifugation at 100,000 g for 1 hr. The pellet is discarded and the supernatant, referred to as the E. Tenella S100 fraction, is retained for binding assays. After estimating the protein concentration, the supernatant (S100) is aliquoted and frozen at -80° C.
(§1) Each assay tube contains a final volume of 1 ml with 1.3 ng/ml of ^3 H-N-desmethoxyapicidin, 150-200 μg of the appropriate S100 supernatant and concentrations of potential HDA inhibitors from 0.001-10 μg/ml.
(§2) (i) labeled substrate. 2-^3 H-N-desmethoxyapicidin (18.69 mCi/mg) is diluted 1:100 in ethanol, and 2 μl added per 1 ml of 50 mM HEPES pH 7.4 with 0.05% Triton®-X100 (HEPES/Triton) is added. This provides 1.3 ng 2-^3 H-N-desmethoxyapicidin /ml of assay (54,000 DPM/ml.)
(§3) (ii) potential HDA inhibitors. The stocks of the test compounds are made up to 2 mg/ml dimethylsulfoxide (DMSO). The stock solution is diluted to 1000, 100, 10, 1 and 0.1 μg/ml in ethanol where a full titration is required. Ethanol is used as a negative control, a 100 μg/ml solution of unlabeled N-desmethoxyapicidin is used as a positive control. Six μl of the test compound solution, the positive and negative controls are used for the assay.
(§4) (iii) supernatant from (a). The S100 sample is diluted to a concentration of 3.0 mg protein/ml (chick liver) or 4 mg protein/ml (parasite) in the HEPES/Triton® buffer. Fifty μl is used for the assay.
(§5) Stock solutions of potential HDA inhibitors (ii) are diluted into 50 mM HEPES/Triton® buffer to achieve a final concentration of test compound in the range of […]. ^3 H-N-desmethoxyapicidin is added to a final concentration of 1.3 ng/ml. 50 μl of parasite or chick liver S100 solution (150-200 μg) is added to each tube. The assay mixture is incubated for 1 hr at 25° C. and then aspirated through Whatman GF/B filters impregnated with polyethylenimine (filters prepared in advance by soaking in 2 ml of polyethylenimine per 330 mls water at room temp for 1 hour). Assay tubes were rinsed 3 times with 1-2 mls of HEPES/Triton® and aspirated through the same filter. The filter is then dried and counted in scintillant.

[2] = target: histone deacetylase (chicken liver S100 lysate); test: Competitive binding assay with 3H-N-desmethoxyapicidin, chick liver S100 lysate; settings: for IC50: displacement of 3H-N-desmethoxyapicidin, chick liver S100
Protocol: Chick Liver. Livers from 3-5 three week old chickens are collected, rinsed in ice cold phosphate buffered saline (pH 7.4), diced into small pieces and rinsed again 3-4 times with ice cold 50 mM N-2-hydroxyethylpiperazine-N'-2-ethanesulfonic acid (HEPES) (pH 7.4) containing 0.1 mM phenylmethanesulfonyl fluoride (PMSF). The tissue is then resuspended in HEPES buffer, homogenized in a polytron homogenizer and centrifuged at 3000×g for 10 min. The supernatant is then subjected to an additional 100,000 g centifugation for 1 hour. The pellet and the floating layer of lipid are discarded and the supernatant, referred to as the chick liver S100 fraction, is retained for binding assays. After estimating the protein concentration, the supernatant (S100) is aliquoted and frozen at -80° C.
as §1, §2, §3, §4, §5

[3] = system: HeLa cell histones; test: Histone acetylation state in HeLa cells (AUT gel electrophoresis); format: cell-based, human; settings: HeLa cells treated 4 hrs, FIG. 1, relative to untreated cells
Protocol: About 2×10^7 HeLa cells growing at 37 C were treated with various compounds in the standard tissue culture medium (MEM containing 10% fetal calf serum) for 4 hrs. Cells were then removed from the flask by scraping in PBS in a total volume of about 10 mls. The cells were washed twice in PBS and resuspended in about 3 mls lysis buffer (Lysis buffer; 0.45% Nonidet® P-40, 10 mM tris, 10 mM NaCl, 5 mM MgCl, 0.1 mM EGTA, 0.1 mM PMSF). The suspension was mixed by vortexing for 10 seconds, incubated on ice for 15 minutes and nuclei were pelleted by centrifugation through a 1 ml cushion of 30% sucrose in lysis buffer at 1300×g for 10 minutes. The supernatant was discarded and the nuclei were then resuspended in 1.0 ml water. H2 SO4 was added to a final concentration of 0.4M and the nuclear suspension was incubated on ice for 30 min. and then pelleted by centrifugation at 13,000×g for 10 miunutes. […]
Acid urea triton (AUT) polyacrylarnide gels were performed according to the methods of Alfageme et al (1974) J. Biol. Chem. 249, 3729, with modifications as described in Lennox and Cohen (Methods in Enzymology, 170, 532-549). […] Gels were either stained with Coomassie Brilliant Blue R in 7% acetic acid, 20% methanol and then destained in 7% acetic acid and 20% methanol, or treated with Enlightening (from New England Nuclear), dried and radiolabel detected by fluorography.

[4] = system: P. falciparum histones; test: Histone acetylation state in P. falciparum (14C acetate labeling, AUT gel); format: cell-based, Plasmodium falciparum; settings: infected red blood cells, 14C sodium acetate, 2 hours, FIG. 2
Protocol: Acid urea triton (AUT) polyacrylarnide gels were performed according to the methods of Alfageme et al (1974) J. Biol. Chem. 249, 3729, with modifications as described in Lennox and Cohen (Methods in Enzymology, 170, 532-549). For optimal resolution of HeLa cell and Plasmodium falciparum histones the separation gel contained 7.5M urea, 12% acrylamide, 0.38% Triton® X 100, 0.08% bis acrylamide, and 0.87M acetic acid. The loading gels contained 7.5M urea, 0.37% Triton® X 100, 6% acrylamide, 0.04% bis acrylamide and 0.87M acetic acid. Gels were run in 1M acetic acid. Gels were pre-electrophoresed at 350V for 1 hour and run at 450 V for 3.5 hours. Gels were either stained with Coomassie Brilliant Blue R in 7% acetic acid, 20% methanol and then destained in 7% acetic acid and 20% methanol, or treated with Enlightening (from New England Nuclear), dried and radiolabel detected by fluorography.
Approximately 1×10^9 P. falciparum infected red blood cells (about 60% parasitized) were resuspended in 10 ml of RPMI 1640 containing various concentrations of test compounds and 250 μCi^14 C sodium acetate and incubated at 37° C. for 2 hours. The cells were then washed 3 time with PBS and histones were prepared as described below.
Histones were prepared according to the method of Cary et al (1994) Parasitology Research, 80, 255-258. […]

[5] = system: E. tenella; test: In vitro antiparasitic activity against E. tenella; format: cell-based, Eimeria tenella
From the text: ^(1) Generally following the procedure described in Crane, Schmatz, Stevens, Habbersett and Murray. Eimeria tenella: in vitro development in irradiated bovine kidney cells.(1984) Parasitology 88: 521-530.

[6] = system: P. falciparum; test: In vitro antiparasitic activity against P. falciparum; format: cell-based, Plasmodium falciparum
From the text: ^(2) Generally following the procedure described in Desjardins et al, "Quantitative Assessment of Antimalarial Activity In Vitro by a Semiautomated Microdilution Technique" Antimicrobial Agents and Chemotherapy, 1979, 16:710-718.

[7] = system: Eimeria HDAase (histone deacetylase); test: Histone deacetylase inhibition assay (Assay 1), E. tenella extract; format: biochemical, Eimeria tenella
Protocol: (§6) The standard assay contained in a total volume of 40 μL: 400 nmol HEPES-sodium, pH 7.4, 100 pmol of the substrate [AcGly-Ala-Lys(ε-^14 C-Ac)-Arg-His-Arg-Lys(ε-^14 C-Ac)-ValNH2 ] (see Kervabon et al (1979) FEBS Letters 106: 93-96) having a specific activity of approx. 114 mCi/mmol, and a source of histone deacetylase (HDAase) activity. The amount of HDAase added was chosen such that ≤20% of the substrate was consumed during the assay. The reaction was initiated by enzyme addition and allowed to proceed for 60 min at 41°. At 60 min, the reaction was terminated by the addition of a 50% slurry of Amberlite AG 50 W×4 cation exchange resin, sodium form (200-400 mesh) in 25 mM sodium acetate buffer, pH 4.2 (200 μL). The resin binds both remaining substrate and the (partially) deacetylated peptidyl products. The quenched reaction was then incubated for at least 30 min at 25° with occassional mixing, diluted with additional 25 mM sodium acetate buffer, pH 4.2 (760 μL; final volume 1000 μL), incubated for a minimum of an additional 30 min at 25° with occassional mixing, and then centrifuged at 10,000×g for 1 min. An aliquot of the supernatant (800 μL) containing the enzymatically released ^14 C-acetate was removed, mixed with Aquasol 2 liquid scintillation counter (LSC) cocktail (10 mL), and counted in a Beckman model LS-5801 LSC. […]

[8] = system: histone deacetylase (chicken liver extracts); test: Histone deacetylase inhibition assay (Assay 1), chicken liver extract; format: biochemical
Protocol: as §6

Row | SMILES | selectivity for E. tenella over chicken liver lysate in binding assay [1] | IC50 [2] | hyperacetylation of HeLa cell histones (shift in histone gel profile) [3] | hyperacetylation of P. falciparum histones [4] | further results
1 | CCC(=O)CCCCC[C@@H]1NC(=O)[C@H]2CCCCN2C(=O)[C@H](C(C)CC)NC(=O)[C@H](c2cn(OC)c3ccccc3c2=O)NC1=O (stereo partly shown) [Compound IIA] | selective | > 1 µM |  |  | 
2 | CCC(=O)CCCCC[C@@H]1NC(=O)[C@H]2CCCCN2C(=O)[C@H](C(C)CC)NC(=O)[C@H](c2c[nH]c3ccccc3c2=O)NC1=O (stereo partly shown) [Compound IIB] | selective | > 1 µM |  |  | 
3 | CCC(=O)CCCCC[C@@H]1NC(=O)[C@H]2CCCCN2C(=O)[C@H]([C@@H](C)CC)NC(=O)[C@H](Cc2cn(OC)c3ccccc23)NC1=O [Compound Ia, Apicidin] |  |  | cause a distinct shift in the histone gel profiles | cause hyperacetylation | 
4 | CC(/C=C/C(=O)O)=C\[C@@H](C)C(=O)c1ccc(N(C)C)cc1 [trichostatic acid] |  | > 1 µM |  |  | activity in binding assay (in words), E. tenella lysate [1]: no activity; IC50 ([1]; displacement of 3H-N-desmethoxyapicidin, E. tenella S100): > 1 µM; activity in binding assay (in words), chicken liver lysate [2]: no activity; activity against E. tenella (in words) [5]: not active; activity against P. falciparum (in words) [6]: not active; activity in enzyme inhibition assay (in words), E. tenella extract [7]: inactive; activity in enzyme inhibition assay (in words), chicken liver extract [8]: inactive
5 | CC(/C=C/C(=O)NO)=C\[C@@H](C)C(=O)c1ccc(N(C)C)cc1 [trichostatin] |  |  | cause a distinct shift in the histone gel profiles | cause hyperacetylation | 
